# Data: US20240327412A1, “FACTOR XIIA INHIBITORS” (KALVISTA PHARMACEUTICALS LIMITED, priority 2021, published 2024)
# Target: T1, Human Factor XIIa (Homo sapiens, UniProt P00748)
# T1 construct: Proteolytic cleavage of FXII to heavy and light chains of FXIIa dramatically increases catalytic activity; purchased Enzyme Research Laboratories
# T1 sequence (P00748 373-615 limits assumed): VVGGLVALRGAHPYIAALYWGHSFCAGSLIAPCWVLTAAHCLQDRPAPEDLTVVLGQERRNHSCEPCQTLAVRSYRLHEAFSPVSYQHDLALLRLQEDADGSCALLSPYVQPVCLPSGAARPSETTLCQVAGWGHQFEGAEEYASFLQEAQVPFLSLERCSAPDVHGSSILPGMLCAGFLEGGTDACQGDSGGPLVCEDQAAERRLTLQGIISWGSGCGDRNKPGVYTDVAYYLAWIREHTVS
# T1 sequence (P00748 20-372 partner limits assumed): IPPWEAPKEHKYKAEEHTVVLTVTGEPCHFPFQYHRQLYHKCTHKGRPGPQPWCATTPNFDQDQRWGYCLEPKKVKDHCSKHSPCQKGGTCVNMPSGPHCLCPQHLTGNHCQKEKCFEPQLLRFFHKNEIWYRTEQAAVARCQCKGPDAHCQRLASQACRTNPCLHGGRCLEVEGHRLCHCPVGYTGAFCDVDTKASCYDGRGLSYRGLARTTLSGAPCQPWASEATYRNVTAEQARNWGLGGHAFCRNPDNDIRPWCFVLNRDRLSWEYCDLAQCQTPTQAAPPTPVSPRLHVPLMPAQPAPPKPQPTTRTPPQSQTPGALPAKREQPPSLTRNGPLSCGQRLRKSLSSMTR
# Experiment: Determination of FXIIa inhibition (fluorogenic substrate H-DPro-Phe-Arg-AFC, IC50 assay)
# Assay type: biochemical
# Details: substrate at Km concentration, 25° C.; category scale; read-out: Human FXII IC50 (nm)
# Method: In vitro inhibition of Factor XIIa was determined using an IC50 assay based on standard literature methods (see e.g Baeriswyl et al., ACS Chem. Biol., 2015, 10 (8) 1861; Bouckaert et al., European Journal of Medicinal Chemistry 110 (2016) 181). Human Factor XIIa (Enzyme Research Laboratories) was incubated at 25° C. with the fluorogenic substrate H-DPro-Phe-Arg-AFC (Peptide Protein Science) and various concentrations of the test compound. Protease activity was measured by monitoring the accumulation of liberated fluorescence from the substrate over 5 min at 25° C. The linear rate of fluorescence increase per minute was expressed as percentage (%) activity. The Km for the cleavage of the substrate by FXIIa was determined by standard transformation of the Michaelis-Menten equation. The compound inhibitor assays were performed at substrate Km concentration. IC50 values were calculated as the concentration of inhibitor giving 50% inhibition (IC50) of the uninhibited enzyme activity (100%).
row,Structure (SMILES),IC50 [nM]
1,"Cn1ccc(OCC23CC(CNc4cccc5c(N)nccc45)(CN2C(=O)OCc2ccccn2)C3)cc1=O [Example 13013, pyridin-2-ylmethyl 4-(((1-aminoisoquinolin-5-yl)amino)methyl)-1-(((1-methyl-2-oxo-1,2-dihydropyridin-4-yl)oxy)methyl)-2-azabicyclo[2.1.1]hexane-2-carboxylate]",100 to 300
2,"Nc1nccc2c(NCC34CC(CN5C(=O)c6ccc(O)cc6C5=O)(CO3)C4)cccc12 [Example 6635, 2-((1-(((1-aminoisoquinolin-5-yl)amino)methyl)-2-oxabicyclo[2.1.1]hexan-4-yl)methyl)-5-hydroxyisoindoline-1,3-dione]",10000 to 40000
3,"Cn1ccc(OCC23CN(C(=O)CCc4cccc(Cl)c4)C(CNc4cccc5c(N)nccc45)(C2)C3)cc1=O [Example 12049, 4-((1-(((1-aminoisoquinolin-5-yl)amino)methyl)-2-(3-(3-chlorophenyl)propanoyl)-2-azabicyclo[2.1.1]hexan-4-yl)methoxy)-1-methylpyridin-2(1H)-one]",10 to 100
4,"Nc1nccc2c(NCC34CC(Cn5ccnc5)(CO3)C4)cccc12 [Example 6646, N5-((4-((1H-imidazol-1-yl)methyl)-2-oxabicyclo[2.1.1]hexan-1-yl)methyl)isoquinoline-1,5-diamine]",40000 to 100000
5,"Cc1ccc(OCC23CCOC(CNc4cccc5c(N)nccc45)(C2)C3)nc1 [Example 10956, N5-((5-(((5-methylpyridin-2-yl)oxy)methyl)-2-oxabicyclo[3.1.1]heptan-1-yl)methyl)isoquinoline-1,5-diamine]",1000 to 3000
6,"Cn1ccc(OCC23CC(CNc4cccc5c(N)nccc45)(CN2C(=O)Oc2ccccc2)C3)cc1=O [Example 13006, phenyl 4-(((1-aminoisoquinolin-5-yl)amino)methyl)-1-(((1-methyl-2-oxo-1,2-dihydropyridin-4-yl)oxy)methyl)-2-azabicyclo[2.1.1]hexane-2-carboxylate]",10 to 100
7,"Cn1ccc(OCC23CN(C(=O)CCc4cccc(C(F)(F)F)c4)C(CNc4cccc5c(N)nccc45)(C2)C3)cc1=O [Example 12050, 4-((1-(((1-aminoisoquinolin-5-yl)amino)methyl)-2-(3-(3-(trifluoromethyl)phenyl)propanoyl)-2-azabicyclo[2.1.1]hexan-4-yl)methoxy)-1-methylpyridin-2(1H)-one]",10 to 100
8,"Cn1ccc(OCC23CN(C(=O)OCc4ccc(F)c(F)c4)C(CNc4cccc5c(N)nccc45)(C2)C3)cc1=O [Example 12020, 3,4-difluorobenzyl 1-(((1-aminoisoquinolin-5-yl)amino)methyl)-4-(((1-methyl-2-oxo-1,2-dihydropyridin-4-yl)oxy)methyl)-2-azabicyclo[2.1.1]hexane-2-carboxylate]",100 to 300
9,"Nc1nccc2c(NCC34CC(COc5ccc6c(c5)C(=O)NC6)(CO3)C4)cccc12 [Example 6642, 6-((1-(((1-aminoisoquinolin-5-yl)amino)methyl)-2-oxabicyclo[2.1.1]hexan-4-yl)methoxy)isoindolin-1-one]",100 to 300
10,"CC1(C)NC(=O)c2ccc(OCC34COC(CNc5cccc6c(N)nccc56)(C3)C4)cc21 [Example 6650, 5-((1-(((1-aminoisoquinolin-5-yl)amino)methyl)-2-oxabicyclo[2.1.1]hexan-4-yl)methoxy)-3,3-dimethylisoindolin-1-one]",100 to 300
11,"Nc1nccc2c(NCC34CC(COc5cc(C(F)(F)F)c6nccn6c5)(CO3)C4)cccc12 [Example 6630, N5-((4-(((8-(trifluoromethyl)imidazo[1,2-a]pyridin-6-yl)oxy)methyl)-2-oxabicyclo[2.1.1]hexan-1-yl)methyl)isoquinoline-1,5-diamine]",100 to 300
12,"Cn1ccc(OCC23CN(C(=O)CCc4ccc(=O)[nH]c4)C(CNc4cccc5c(N)nccc45)(C2)C3)cc1=O [Example 12054, 4-((1-(((1-aminoisoquinolin-5-yl)amino)methyl)-2-(3-(6-oxo-1,6-dihydropyridin-3-yl)propanoyl)-2-azabicyclo[2.1.1]hexan-4-yl)methoxy)-1-methylpyridin-2(1H)-one]",10 to 100
